In patent US20040192665A1 (priority 2002, published 2004):

What was measured:
[1] = experiment 2, I.P. 8 mg/kg once per week
[2] = test system: DU-145 human prostate tumor cells; assay: DU-145 xenograft tumor growth in nude mice; format: in vivo, nude mice (nu/nu); conditions: experiment 2; I.P. 8 mg/kg once per week; after 5 treatments
Method: Cage were cleaned and bedding changed once weekly. Irradiated corn cob bedding was used. Animals were observed daily and clinical signs were noted.
Morbidity and mortality were monitored daily.
The dosage level was determined by exact body weight.
Five mice per treatment group were tested.
Animals were treated once per week for 5 weeks.

Compound: COc1cccc2c1C(=O)c1c(O)c3c(c(O)c1C2=O)C[C@@](O)(C(=O)CO)C[C@@H]3O[C@H]1C[C@H](N)[C@H](O)[C@H](C)O1 [doxorubicin]
- animals survived ([1]; after 5 treatments): 3/6
- average group weight in the surviving animals, down by ([1]; after the 5th treatment): 27%
- tumor volumes less compared to placebo-control tumors [2]: 4.4 fold
